# Laboratory results reported in publication PMC9154192 (PLoS Biology, 2022).
# “And” between values parts separate entries of the source, which are not always exact repeats. Identical values can stand only once. Like-named read-outs stand apart in the source and are kept apart here.
# What was measured:
# [1] = format: cell-based; conditions: positive control, absence of S9 mix
# M. tuberculosis H37Rv = assay: microbe, parasite or virus in culture; format: cell-based, Mycobacterium tuberculosis; conditions: for MIC: Mycobacterium tuberculosis, H37RV, read-out: MIC; for SI (CC50/MIC): ratio of CC50 for L929 fibroblasts to MIC for strain H37Rv
# [2] = test system: clinically isolated MDR, XDR, and TDR M. tuberculosis strains; assay: microbe, parasite or virus in culture; format: cell-based; conditions: Mycobacterium tuberculosis
# M. abscessus = assay: microbe, parasite or virus in culture; format: cell-based, Mycobacterium abscessus; conditions: Mycobacteroides abscessus
# M. arupense = assay: microbe, parasite or virus in culture; format: cell-based, Mycobacterium arupense; conditions: Mycolicibacter arupensis
# M. aubagnense = assay: microbe, parasite or virus in culture; format: cell-based, Mycobacterium aubagnense; conditions: Mycolicibacterium aubagnense
# M. avium = assay: microbe, parasite or virus in culture; format: cell-based; conditions: Mycobacterium avium
# M. bolletii = assay: microbe, parasite or virus in culture; format: cell-based, Mycobacterium bolletii; conditions: Mycobacteroides abscessus
# M. bovis = assay: microbe, parasite or virus in culture; format: cell-based; conditions: Mycobacterium tuberculosis variant bovis
# M. chitae = assay: microbe, parasite or virus in culture; format: cell-based, Mycobacterium chitae; conditions: Mycolicibacterium chitae
# M. colombiense = assay: microbe, parasite or virus in culture; format: cell-based; conditions: Mycobacterium colombiense
# M. conceptionense = assay: microbe, parasite or virus in culture; format: cell-based, Mycobacterium conceptionense; conditions: Mycolicibacterium senegalense
# M. fortuitum = assay: microbe, parasite or virus in culture; format: cell-based, Mycobacterium fortuitum; conditions: Mycolicibacterium fortuitum
# M. gilvum = assay: microbe, parasite or virus in culture; format: cell-based, Mycobacterium gilvum; conditions: Mycolicibacterium gilvum
# M. goodie = assay: microbe, parasite or virus in culture; format: cell-based; conditions: Mycobacterium
# M. gordonae = assay: microbe, parasite or virus in culture; format: cell-based; conditions: Mycobacterium gordonae
# M. heraklionease = assay: microbe, parasite or virus in culture; format: cell-based; conditions: Mycobacterium
# M. intracellulare = assay: microbe, parasite or virus in culture; format: cell-based; conditions: Mycobacterium intracellulare
# M. kansasii = assay: microbe, parasite or virus in culture; format: cell-based; conditions: Mycobacterium kansasii
# M. kyorinense = assay: microbe, parasite or virus in culture; format: cell-based; conditions: Mycobacterium kyorinense
# M. marinum = assay: microbe, parasite or virus in culture; format: cell-based; conditions: Mycobacterium marinum
# M. marseiliense = assay: microbe, parasite or virus in culture; format: cell-based; conditions: Mycobacterium
# M. massiliense = assay: microbe, parasite or virus in culture; format: cell-based, Mycobacterium massiliense; conditions: Mycobacteroides abscessus
# M. neoaurum = assay: microbe, parasite or virus in culture; format: cell-based, Mycobacterium neoaurum; conditions: Mycolicibacterium neoaurum
# M. peregrinum = assay: microbe, parasite or virus in culture; format: cell-based, Mycobacterium peregrinum; conditions: Mycolicibacterium peregrinum
# M. phlei = assay: microbe, parasite or virus in culture; format: cell-based, Mycobacterium phlei; conditions: Mycolicibacterium phlei
# M. phocaicum = assay: microbe, parasite or virus in culture; format: cell-based, Mycobacterium phocaicum; conditions: Mycolicibacterium phocaicum
# M. smegmatis = assay: microbe, parasite or virus in culture; format: cell-based, Mycobacterium smegmatis; conditions: Mycolicibacterium smegmatis
# M. szulgai = assay: microbe, parasite or virus in culture; format: cell-based; conditions: Mycobacterium szulgai
# M. xenopi = assay: microbe, parasite or virus in culture; format: cell-based; conditions: Mycobacterium xenopi
# M. tuberculosis H37Ra = assay: microbe, parasite or virus in culture; format: cell-based, Mycobacterium tuberculosis; conditions: Mycobacterium tuberculosis, H37RA
# in vitro = format: cell-based, murine; conditions: mouse
# Method: A549 human pulmonary epithelial cells (KCLB 10185), human embryonic kidney (HEK) 293 cells (KCLB 21573), human THP-1 leukemia cells (KCLB 40202), human neuroblastoma SH-SY5Y cells (KCLB 22266), Murine Raw 264.7 macrophages (KCLB 40071), and L929 murine fibroblasts (KCLB 10001) were purchased from the KCLB (Seoul, Korea). Cytotoxicity testing was performed using the MTT assay and the WST-1 cell viability assay as previously described.
# intestinal microbiome = assay: Gut microbiome, 16s rRNA gene-based metagenomics analysis of feces; format: in vivo, BALB/c mice; conditions: 30 mg/kg oral once a day for 7 days, BALB/c mice, feces
# Method: Six-week-old BALB/c female mice were used for this study (6 mice for each group). Each drug was administered orally at 30 mg/kg once daily for 7 days. Stool was collected, and 16 rRNA gene-based metagenomics analysis was performed. Corn oil was used as the vehicle. The drug-free group received corn oil only. This animal experiment was conducted with the approval of the IACUC of the Soonchunhyang University (approval number: SCH21-0011). Microbiome analysis of collected feces was carried out as previously described with some modifications. Total DNA was extracted from the stool using the QIAamp DNA stool mini kit (Qiagen, Germany) after mechanical disruption using lysing matrix B tubes (MP Biomedicals, USA). V4 region of 16S RNA gene was amplified from extracted DNA with the following primers: forward primer ([…]) and reverse primer ([…]). PCR was performed using the Kappa HiFi hot start kit (KAPA Biosystems, USA) for 16s gene amplification and library preparation. A dsDNA HS assay kit and Qubit 4 fluorimeter (Invitrogen, USA) were used for DNA quantification. After each step, quality was checked using Agilent High Sensitivity DNA Kit and Agilent Bioanalyzer 2100 (Agilent Technologies, USA). Clean-up was performed using AMPure XP beads (Beckman Coulter, UK). The metagenomic library was prepared using a Nextera XT DNA Library Prep Kit (Illumina, USA) and loaded into an iSeq-100 reagent cartridge (Illumina, USA) together with a PhiX Control library (Illumina, USA). A 300-bp paired-end sequencing was performed on an iSeq-100 platform (Illumina, USA). Sequencing data were analyzed using the EzBioCloud server (Chunlab, Korea).
structure (smiles),measurement,setting,value
O=[N+]([O-])c1ccc2c(c1)Cc1ccccc1-2 [2-NF],Individual revertant colony counts,"[1]; TA98, 5.0 μg/plate",705 colonies per plate and 649 colonies per plate
same,Mean revertant colonies,"[1]; TA98, 5.0 μg/plate",677 colonies per plate
Nc1c2ccccc2nc2ccccc12 [9-AA],Individual revertant colony counts,"[1]; TA1537, 80.0 μg/plate",539 colonies per plate and 571 colonies per plate
same,Mean revertant colonies,"[1]; TA1537, 80.0 μg/plate",555 colonies per plate
[N-]=[N+]=[N-].[Na+] [SA],Individual revertant colony counts,"[1]; TA100, 1.5 μg/plate",734 colonies per plate and 732 colonies per plate
same,Mean revertant colonies,"[1]; TA100, 1.5 μg/plate",733 colonies per plate
same,Individual revertant colony counts,"[1]; TA1535, 1.5 μg/plate",588 colonies per plate and 535 colonies per plate
same,Mean revertant colonies,"[1]; TA1535, 1.5 μg/plate",562 colonies per plate
"NC(=O)c1cnccn1 [PZA, pyrazinamide]",MIC,M. tuberculosis H37Rv,> 100 µg/mL
same,MIC,[2],> 100 µg/mL
same,MIC,[2]; TDR-1,> 100 µg/mL
same,MIC,[2]; TDR-2,> 100 µg/mL
same,MIC,[2]; TDR-3,> 100 µg/mL
same,MIC,M. abscessus,> 100 µg/mL
same,MIC,M. arupense,> 100 µg/mL
same,MIC,M. aubagnense,> 100 µg/mL
same,MIC,M. avium,> 100 µg/mL
same,MIC,M. bolletii,> 100 µg/mL
same,MIC,M. bovis,> 100 µg/mL
same,MIC,M. chitae,> 100 µg/mL
same,MIC,M. colombiense,> 100 µg/mL
same,MIC,M. conceptionense,> 100 µg/mL
same,MIC,M. fortuitum,> 100 µg/mL
same,MIC,M. gilvum,> 100 µg/mL
same,MIC,M. goodie,> 100 µg/mL
same,MIC,M. gordonae,> 100 µg/mL
same,MIC,M. heraklionease,> 100 µg/mL
same,MIC,M. intracellulare,> 100 µg/mL
same,MIC,M. kansasii,> 100 µg/mL
same,MIC,M. kyorinense,> 100 µg/mL
same,MIC,M. marinum,> 100 µg/mL
same,MIC,M. marseiliense,> 100 µg/mL
same,MIC,M. massiliense,> 100 µg/mL
same,MIC,M. neoaurum,> 100 µg/mL
same,MIC,M. peregrinum,> 100 µg/mL
same,MIC,M. phlei,> 100 µg/mL
same,MIC,M. phocaicum,> 100 µg/mL
same,MIC,M. smegmatis,> 100 µg/mL
same,MIC,M. szulgai,> 100 µg/mL
same,MIC,M. xenopi,> 100 µg/mL
COC(=O)[C@H]1CCC(=O)N1Cc1cc2ccc(OC)cc2c2cc(OC)c(OC)cc12 [PP1R],MIC,M. tuberculosis H37Rv,> 100 µg/mL
same,MIC,M. tuberculosis H37Ra,> 100 µg/mL
COC(=O)c1cc2ccc(OC3CCCCC3)cc2c2cc(OC)c(OC)cc12 [DPGA6],MIC,M. tuberculosis H37Rv,> 100 µg/mL
same,MIC,M. tuberculosis H37Ra,> 100 µg/mL
same,CC50,"in vitro; L929, MTT assay (Table S1)",> 100 µg/mL
same,CC50,"in vitro; RAW, MTT assay (Table S1)",> 100 µg/mL
COC(=O)c1cc2ccc(O)cc2c2cc(OC)c(OC)cc12 [DPGA4],MIC,M. tuberculosis H37Rv,> 100 µg/mL
same,SI (CC50/MIC),M. tuberculosis H37Rv,<0.3
same,MIC,M. tuberculosis H37Ra,> 100 µg/mL
same,CC50,"in vitro; L929, MTT assay (Table S1)",34.9 µg/mL
same,CC50,"in vitro; RAW, MTT assay (Table S1)",37.5 µg/mL
CCCCOc1ccc2cc(C(=O)OC)c3cc(OC)c(OC)cc3c2c1 [DPGA10],MIC,M. tuberculosis H37Rv,> 100 µg/mL
same,SI (CC50/MIC),M. tuberculosis H37Rv,<0.2
same,MIC,M. tuberculosis H37Ra,> 100 µg/mL
same,CC50,"in vitro; L929, MTT assay (Table S1)",21.5 µg/mL
same,CC50,"in vitro; RAW, MTT assay (Table S1)",> 100 µg/mL
"CN[C@H](CC(C)C)C(=O)N[C@H]1C(=O)N[C@@H](CC(N)=O)C(=O)N[C@H]2C(=O)N[C@H]3C(=O)N[C@H](C(=O)N[C@H](C(=O)O)c4cc(O)cc(O)c4-c4cc3ccc4O)[C@H](O)c3ccc(c(Cl)c3)Oc3cc2cc(c3O[C@@H]2O[C@H](CO)[C@@H](O)[C@H](O)[C@H]2O[C@H]2C[C@](C)(N)[C@H](O)[C@H](C)O2)Oc2ccc(cc2Cl)[C@H]1O [VAN, vancomycin]","beta set-significance analysis, pair-wise comparison of gut microbiome",intestinal microbiome,significant
same,difference in phylum or class level taxa compared to drug-free group,intestinal microbiome,significant differences
same,phylogenetic diversity compared to drug-free control group,intestinal microbiome,significantly decreased
